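All cell lines were grown in 96-well plates and treated with compound for 48 hours. At the GI50, growth is halved.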 Calls of active or inactive are those of the source. Cut-off read from the data, not from the text of the source: active = GI50 up to about 1.1 µM and inactive = higher. Where a SMILES comes first, the peptide text is derived from it. The star is where a group is joined. Cbz = O=C(OCc1ccccc1)*

The text below walks through data of ChEMBL document CHEMBL1201862, “PubChem BioAssay data set” (2004).

Common to all, as to assay: DTP human tumour cell line panel, 48 h
The test system of test [1] is HCT-116.
For test [2], the system named is SW-620.
The subject of test [3] is A498.
In test [4] the test system is SN12C.
The subject of test [5] is HOP-62.
Test [6] has as its system 786-0.
In test [7] the test system is MDA-N.
Test [8] has as its system CCRF-CEM.
Test [9] deals with SK-MEL-28.
The subject of test [10] is CAKI-1.
Test [11] deals with UO-31.
Test [12] has as its system SK-MEL-2.
Test [13] relates to NCI-H522.
The subject of test [14] is HT-29.
Test [15] relates to UACC-62.
Test [16] has as its system HCT-15.
Test [17] concerns LOX IMVI.
Test [18] deals with DU-145.
Test [19] relates to HCC 2998.
The test system of test [20] is SR.

On to `CCOC(=O)C(=O)CC(=O)C1=C(c2ccccc2OC)CC(c2cccs2)=CC1=O`, for which the GI50 is 31.7 µM (inactive) in [1]; 72.3 µM (inactive) in test [2]; > 100 µM (inactive) in test [3]; > 100 µM (inactive) in test [4]; 45.4 µM (inactive) in test [5]; > 100 µM (inactive) in test [6]. Besides, the GI50 in [7] was 36.1 µM (inactive); in test [8] it was 37.1 µM (inactive); in test [9], > 100 µM (inactive); in test [10], 57.1 µM (inactive); in [11], > 100 µM (inactive); in [12], 78.9 µM (inactive). For the same compound, the GI50 was 20.9 µM (inactive) in [13]; 50.2 µM (inactive) in [14]; > 100 µM (inactive) in [15]; 82.4 µM in test [16]; 83.9 µM (inactive) in test [17]; > 100 µM (inactive) in test [18].
`CCOP(=O)(OCC)/C(=C\N1C(=O)CC(=O)NC1=S)C(=O)OC`: the GI50 in test [1], in [2], in test [3], in test [4], in [5] and in test [6] was > 100 µM (inactive) each time. Moreover, the GI50 in test [7], in test [9], in [10], in test [11], in test [19] and in test [12] was > 100 µM (inactive) in each case. For the same compound, the GI50 was > 100 µM (inactive) in test [14]; > 100 µM (inactive) in test [15]; greater than 100 µM in [16]; > 100 µM (inactive) in test [17]; > 100 µM (inactive) in test [18].
For `CCOC(=O)CNC(=O)C(C)NC(=O)C(NC(=O)OCc1ccccc1)C(C)C` (stereo not drawn) (Cbz-Val-Ala-Gly-OEt; configuration not given here), the GI50 in [1], in test [2], in [4], in test [5], in test [6] and in [7] was > 100 µM (inactive) in each case. Further, the GI50 is > 100 µM (inactive) in test [9]; > 100 µM (inactive) in test [20]; > 100 µM (inactive) in test [10]; 98.9 µM (inactive) in [11]; 90.2 µM (inactive) in [19]; 77.8 µM (inactive) in test [12]. The GI50 in test [13] is 97.5 µM (inactive); in test [14], > 100 µM (inactive); in test [15] it was > 100 µM (inactive); in test [16], greater than 100 µM; in test [18], > 100 µM (inactive).
`O=[N+]([O-])c1ccc(N2N=C(c3ccc4ccccc4c3O)CC2c2ccc(Cl)cc2Cl)c([N+](=O)[O-])c1` (stereo not given): the GI50 in [1] was 23.6 µM (inactive); in test [2], 37.5 µM (inactive); in [4], 71 µM (inactive); in test [5], 38.1 µM (inactive); in test [6], 28.2 µM (inactive); in test [7], 40.9 µM (inactive). Also, the GI50 in [8] was 12.9 µM (inactive); in test [9] it was 65.8 µM (inactive); in [10], 54.6 µM (inactive); in [11], 18.7 µM (inactive); in [19], 30.3 µM (inactive); in test [12], 30.3 µM (inactive). Moreover, the GI50 in test [13] is 28 µM (inactive); in test [14], 40.1 µM (inactive); in test [15], 26.7 µM (inactive); in test [16], 27.2 µM; in test [17] it was 41.5 µM (inactive); in test [18] it was 55.5 µM (inactive).
`NC(Cc1ccc(S(=O)(=O)O)cc1)C(=O)NC(Cc1ccc(S(=O)(=O)O)cc1)C(=O)NC(Cc1ccc(S(=O)(=O)O)cc1)C(=O)NC(Cc1ccc(S(=O)(=O)O)cc1)C(=O)O` (stereo not given): the GI50 in test [1], in test [2], in test [3], in test [4], in test [5] and in test [6] was > 100 µM (inactive) in each case. Also, the GI50 in test [7], in [8], in test [9], in test [10], in test [11] and in test [19] was > 100 µM (inactive) each time. For the same compound, the GI50 is > 100 µM (inactive) in test [12]; > 100 µM (inactive) in test [13]; > 100 µM (inactive) in test [14]; > 100 µM (inactive) in [15]; greater than 100 µM in test [16]; > 100 µM (inactive) in test [17]. Moreover, the GI50 in test [18] was > 100 µM (inactive).
For `Cc1cccc2c1Oc1cc(Cl)ccc1C2NC(=O)CCN1CCCCC1` (stereo not given), the GI50 in test [1] was 15.9 µM (inactive); in test [2], 17.8 µM (inactive); in [4] it was 17.3 µM (inactive); in [5] it was 14.3 µM (inactive); in test [6], 14.8 µM (inactive); in test [7] it was 16.3 µM (inactive). Moreover, the GI50 was 16 µM (inactive) in test [8]; 15.6 µM (inactive) in test [9]; 16.2 µM (inactive) in test [20]; 15.4 µM (inactive) in test [11]; 15 µM (inactive) in test [19]; 16.9 µM (inactive) in test [13]. The GI50 was 12.6 µM (inactive) in test [14]; 14.7 µM (inactive) in test [15]; 17.7 µM in test [16]; 15.6 µM (inactive) in test [17]; > 10 µM (inactive) in test [18].
`Nc1ncnc2c1nnn2C1CCC(CP(=O)(O)O)C1` (stereo not given): the GI50 in test [1], in test [2], in test [4], in [5], in [6] and in [7] was > 100 µM (inactive) each time. Moreover, the GI50 in test [8], in test [9], in test [20], in test [10], in test [11] and in [19] was > 100 µM (inactive) in each case. The GI50 was > 100 µM (inactive) in test [12]; > 100 µM (inactive) in test [14]; > 100 µM (inactive) in [15]; greater than 100 µM in [16]; > 100 µM (inactive) in [17]; > 100 µM (inactive) in test [18].
Regarding `O=C1OC(=O)c2cc(S(=O)(=O)c3ccc4c(c3)C(=O)OC4=O)ccc21`, the GI50 in test [1], in test [2], in test [4], in [5], in test [6] and in [7] was > 100 µM (inactive) in each case. Further, the GI50 in test [8], in test [9], in test [10], in test [11], in [19] and in [12] was > 100 µM (inactive) in each case. Further, the GI50 was > 100 µM (inactive) in test [13]; > 100 µM (inactive) in test [14]; > 100 µM (inactive) in test [15]; greater than 100 µM in test [16]; > 100 µM (inactive) in [17]; > 100 µM (inactive) in [18].
Turning to `COc1ccc(N2C(=O)C3c4[nH]c5c(C)cccc5c4C4CCC(c5ccccc5)CC4C3C2=O)cc1` (stereo not given), the GI50 in test [1] is 13.4 µM (inactive); in test [2] it was 9.23 µM (inactive); in test [3], 18.2 µM (inactive); in [4], 16.2 µM (inactive); in test [5], 14 µM (inactive); in [6], 3.9 µM (inactive). Also, the GI50 was 13.5 µM (inactive) in [7]; 1.28 µM (inactive) in test [8]; 12 µM (inactive) in test [9]; 16.9 µM (inactive) in test [10]; 20.9 µM (inactive) in [11]; > 10 µM (inactive) in [19]. In addition, the GI50 in test [12] is 24.2 µM (inactive); in test [13] it was 3.9 µM (inactive); in test [14], 3.21 µM (inactive); in test [15], > 10 µM (inactive); in [16] it was 11.9 µM; in [17], 13.8 µM (inactive). Moreover, the GI50 in test [18] is 11.7 µM (inactive).
Turning to `NC(=O)C(N)CC12CC3CC(CC(C3)C1)C2` (stereo not given), the GI50 in test [1] was 17 µM (inactive); in [2], 33 µM (inactive); in test [4] it was 21 µM (inactive); in test [6], 22.3 µM (inactive); in [7], 13.6 µM (inactive); in [8], 26.7 µM (inactive). Also, the GI50 in [9] was 20.1 µM (inactive); in test [20], 17.2 µM (inactive); in [10], 27.3 µM (inactive); in test [11], 21.7 µM (inactive); in [19] it was 21.6 µM (inactive); in [12], 24.6 µM (inactive). The GI50 is 15 µM (inactive) in test [13]; 28.1 µM (inactive) in [14]; 14.5 µM (inactive) in [15]; 31.6 µM in test [16]; 16 µM (inactive) in test [17]; 12.6 µM (inactive) in [18].
`S=C1CC(c2ccccc2)Sc2ccc(Cl)cc2N1` (stereo not given): the GI50 in test [1] is 21.2 µM (inactive); in [4], 94 µM (inactive); in test [5], 45.6 µM (inactive); in [6] it was 24.3 µM (inactive); in test [7] it was 38.8 µM (inactive); in test [8] it was > 100 µM (inactive). In addition, the GI50 in [9] was 41.1 µM (inactive); in test [20], 20.8 µM (inactive); in test [10], 63.7 µM (inactive); in test [11], 71.3 µM (inactive); in test [13], 25.8 µM (inactive); in test [14] it was 60.7 µM (inactive). In addition, the GI50 was 48.1 µM (inactive) in test [15], 32.7 µM in [16], > 100 µM (inactive) in test [17] and 42.9 µM (inactive) in test [18].
